Results reported in ChEMBL document CHEMBL3244016, “Isomers of erythro-5-(1-hydroxy-2-isopropylaminobutyl)-8-hydroxycarbostyril, a new bronchodilator” (J Med Chem, 1977).

What was measured:
Canis familiaris [1] = experiment: Increase in heart rate in iv dosed anesthetized mongrel dog; type: organism-based, Canis lupus familiaris; conditions: in vivo
Canis familiaris [2] = experiment: Bronchodilatory activity in iv dosed mongrel dog assessed as inhibition of histamine-induced bronchospasm administered 1 min prior to histamine challenge relative to l-isoproterenol; type: functional, Canis lupus familiaris
Canis familiaris [3] = experiment: Increase in heart rate in iv dosed anesthetized mongrel dog relative to l-isoproterenol; type: organism-based, Canis lupus familiaris; conditions: in vivo
Canis familiaris [4] = species: Canis familiaris; experiment: Separation ratio of ED25 for increase in heart rate in mongrel dog to ED50 for inhibition of bronchoconstriction in mongrel dog; set-up: species or system Canis lupus familiaris
Canis familiaris [5] = experiment: Bronchodilatory activity in iv dosed mongrel dog assessed as inhibition of histamine-induced bronchospasm administered 1 min prior to histamine challenge; type: functional; conditions: Canis lupus familiaris

With `CC[C@@H](NC(C)C)[C@@H](O)c1ccc(O)c2[nH]c(=O)ccc12` as the molecule, how does the ED14.5 (Canis familiaris [1]) read?
Its ED14.5 is 3000 µg/kg.

What about the “Ratio ED50” value (Canis familiaris [2]) of the same molecule?
The value was 18500.

For `CC[C@@H](NC(C)C)[C@H](O)c1ccc(O)c2[nH]c(=O)ccc12`, which “Ratio ED50” value (Canis familiaris [2]) is on record?
The value was 4110.

And the Ratio (Canis familiaris [3])?
The Ratio was 7560.

What about the Ratio (Canis familiaris [4]) of the same molecule?
Its Ratio is 1.84.

How did the “Ratio ED50” value (Canis familiaris [2]) turn out when `CC[C@H](NC(C)C)[C@@H](O)c1ccc(O)c2[nH]c(=O)ccc12` was run?
Its value is 566.

What about the Ratio (Canis familiaris [3]) of the same molecule?
Its Ratio is 9550.

What about the Ratio (Canis familiaris [4]) of the same molecule?
Its Ratio is 16.9.

For `CCC(NC(C)C)C(O)c1ccc(O)c2[nH]c(=O)ccc12` (racemic; erythro) [PROCATEROL], which “Ratio ED50” value (Canis familiaris [2]) is on record?
The value was 2.03.

What about the Ratio (Canis familiaris [3]) of the same molecule?
The Ratio was 50.5.

And the Ratio (Canis familiaris [4])?
The Ratio was 24.9.

`CCC(NC(C)C)C(O)c1ccc(O)c2[nH]c(=O)ccc12` (racemic; threo) [PROCATEROL] was tested. Which ED19.5 (Canis familiaris [1]) did it give?
The ED19.5 was 300 µg/kg.

And the “Ratio ED50” value (Canis familiaris [2])?
Its value is 148.

Which “Ratio ED50” value (Canis familiaris [2]) does the source give for `CCC(NC(C)C)C(O)c1ccc(O)c2[nH]c(=O)ccc12` (stereo in doubt) [PROCATEROL] here?
Its value is 1.41.

And the Ratio (Canis familiaris [3])?
Its Ratio is 33.2.

And the Ratio (Canis familiaris [4])?
The Ratio was 23.5.

Which ED25 (Canis familiaris [1]) does the source give for `CC(C)NCC(O)c1ccc(O)c(O)c1` (stereo not drawn) [ISOPROTERENOL] here?
Its ED25 is 0.019 µg/kg.

What about the ED50 (Canis familiaris [5]) of the same molecule?
Its ED50 is 0.069 µg/kg.
